Paper PMC10226132, “First-in-Class Selective Inhibitors of the Lysine Acetyltransferase KAT8” (Journal of Medicinal Chemistry, 2023)

Assays:
[1] = test system: normal human lung fibroblasts (NHLF); test: Proliferation of normal human lung fibroblasts (NHLF); type: cell-based; settings: 25, 50, 100, 200 μM, 72 h
Experimental: (§1) For analysis of cell proliferation, cells were plated in sextuplicate on 96-well plates in complete media. After 24 h, cells were exposed to different drugs for 72 h. The inhibitory effect of different drugs was assessed by MTT (Sigma, St. Louis, MO, USA) colorimetric assays as previously reported.[67] Aqueous DMSO (0.5% v/v) was used as a control (untreated). The results are reported as “viability of drug-treated cells/viability of untreated cells” × 100 and represent the average ±SD of three independent experiments. IC50 values were using fitted by nonlinear regression using GraphPad Prism 8.0.

U937 cells = test: MTT cell proliferation assay, U937; type: cell-based, human; settings: for antiproliferative activity in U937: 10, 25, 50, 100 μM; for IC50: 72 h treatment, MTT
Text: (§2) Human commercially available AML U937, breast cancer MCF7, lung adenocarcinoma NCI-H460, H1299 and A-549, glioblastoma U251, B lymphocyte AHH1 cell lines were maintained in compete 10% foetal bovine serum (FBS,) RPMI 1640 (Euroclone, Milan, IT) medium. Human commercially available colon cancer HCT116 and HT29 lines and cervix adenocarcinoma HeLa cells were maintained in compete 10% FBS Dulbecco’s Modified Eagle Medium (DMEM) high glucose medium (Euroclone). L-Glutamine, FBS, and penicillin streptomycin mixture added to medium were obtained from Euroclone. All cell lines were cultured at 37 °C in a humidified atmosphere of 5% CO2:95% air and were tested for mycoplasma contamination routinely by RT-PCR.
as §1

AHH-1 cells = test: Proliferation of noncancer B lymphocyte AHH-1 cells; type: cell-based, human; settings: 72 h; for effect on proliferation of AHH-1 cells: 25, 50, 100, 200 μM; for IC50: Homo sapiens, AHH-1, NI = no inhibition at 200 µM
Text: as §2, §1

HT29 cells [2] = test: MTT cell proliferation assay, HT29; type: cell-based, human; settings: for antiproliferative activity in HT29: 10, 25, 50, 100 μM; for IC50: Homo sapiens, HT-29, 72 h treatment, MTT
Text: as §2, §1

[3] = test system: LC3 and p62 in HCT116 cells; test: Western blot of autophagic markers in HCT116 cells; type: cell-based, human; settings: increasing doses, 48 h
Experimental: (§3) For WB experiments, the cells were lysed in RIPA buffer supplemented with 1× […] protease inhibitor cocktail (Sigma-Aldrich, S8830); 20 μg of total protein was resolved in 13.5% gels by SDS-PAGE. Then, the proteins were transferred to nitrocellulose membranes (Biorad Laboratories). Membranes were blocked for 1 h and incubated overnight with the appropriate primary antibody at 4 °C. After incubation, membranes were washed and incubated with the appropriate secondary antibody (Biorad Laboratories) for 1 h at room temperature. Following primary rabbit monoclonal antibodies H4K16Ac (1:1000, E2B8W, Rabbit mAb#13534, Cell Signalling Technology), KAT8 (1:1000, D5T3R Rabbit mAb #46862 Cell Signalling Technology), GAPDH (1:1000, sc-32233, Santa Cruz Biotechnologies), anti-LC3B (Sigma-Aldrich, L7543), anti-SQSTM1/p62 (Santa Cruz Biotechnology, sc-28,359), and anti-GAPDH (Santa Cruz Biotechnology, sc-32,233). Secondary antibodies: anti-mouse (Bio-Rad Laboratories, 1,706,515) or anti-rabbit (Bio-Rad Laboratories, 1,706,516) IgG-horseradish peroxidase-conjugated antibodies. Detection was performed by ECL Western Blotting Substrate (Biorad Laboratories). Images of blots were acquired through the ChemiDoc Imaging Systems (Biorad Laboratories). The band signals were quantified using ImageJ, and values were normalized to relative controls, depending on the analysis.

HeLa cells = test: MTT cell proliferation assay, HeLa; type: cell-based, human; settings: 10, 25, 50, 100 μM, 72 h
Text: as §2, §1

HT29 cells [4] = test: Cell cycle analysis by propidium iodide staining, HT29; type: cell-based, human; settings: 72 h
Experimental: For the analysis of the progression of cells through cell cycle phases and sub-G1 peak identification, 24 h after plating, cells were treated with the different compounds. After 72 h, both floating and adherent cells were collected and fixed with cold 70% ethanol. At least 24 h after fixation, cells were incubated with 0.025 mg/mL Propidium Iodide for 15 min at room temperature and analyzed. For Annexin V analysis, 24 h after plating, cells were treated with 50 and 100 μM of the compounds. In the case of chloroquine experiments, 10 μM chloroquine (Sigma-Aldrich, A9165) was added 30 min before compounds. 72 h after treatment, both floating and adherent cells were collected and stained with an Annexin V-FITC apoptosis detection kit (ENZO #ALX-850-020-KI). Samples were incubated 15 min in the dark at rt, and 10,000 events were then analyzed.

[5] = test system: UCP2 mRNA in HCT116 cells; test: qRT-PCR of UCP2 mRNA in HCT116 cells; type: cell-based, human; settings: HCT116, 100 μM, 48 h
Experimental: (§4) Total RNA was isolated from cells after 48 h of treatment with compounds 19 and 34 (100 μM) using TRIzol reagent (Life Technologies) following the manufacturer’s instructions. cDNA was obtained by reverse transcription using a SensiFast cDNA Synthesis kit (Meridian Bioscience). qRT-PCR was performed using a Luna Universal qPCR Master Mix (BioLabs) and detected by Quant Studio3. The fold change of gene expression data was calculated by using the ddCT method. All samples were run in sextupled, and the results were presented as mean ± SEM. Detailed sequence of the primers used in the experiments can be found in the list below. • UCP2—Forward: 5′-[…]-3′ • Reverse 5′-[…]-3′ • HOXA9 — Forward: 5′-[…]-3′ • Reverse: 5′-[…]-3′

[6] = test system: HOXA9 mRNA in HCT116 cells; test: qRT-PCR of HOXA9 mRNA in HCT116 cells; type: cell-based, human; settings: HCT116, 100 μM, 48 h
Experimental: as §4

[7] = test system: LC3 and p62 in HeLa cells; test: Western blot of autophagic markers in HeLa cells; type: cell-based, human; settings: increasing doses, 48 h
Experimental: as §3

KDAC2, 3, 6, and 8 = test system: KDAC2, 3, 6, and 8; design: method as in PMID 26718586; settings: cited from earlier work

Row | SMILES | effect on proliferation of NHLF [1] | antiproliferative activity in U937 (U937 cells; 72 h) | inhibition at 50 µM (U937 cells; Homo sapiens, U-937, 50 μM, 72 h) [%] | inhibition at 100 µM (U937 cells; Homo sapiens, U-937, 100 μM, 72 h) [%] | IC50 (U937 cells; Homo sapiens, U-937) [µM] | effect on proliferation of AHH-1 cells (AHH-1 cells) | IC50 (AHH-1 cells) [µM] | antiproliferative activity in HT29 (HT29 cells [2]; 72 h) | IC50 (HT29 cells [2]) [µM] | LC3-II/-I ratio and p62 autophagic markers (WB), HCT116 [3] | antiproliferative activity in HeLa (HeLa cells) | change in the different stages of cell cycle, HT29 (HT29 cells [4]) | UCP2 mRNA levels [5] | decrease of cell viability, HT29 (HT29 cells [2]; 100 μM, 72 h) [%] | HOXA9 mRNA levels [6] | LC3-II/-I ratio and p62 autophagic markers (WB), HeLa [7] | IC50 (KDAC2, 3, 6, and 8) [µM]
1 | CC1=NN(c2ccc(C(=O)O)cc2)C(=O)/C1=C\c1ccc[nH]1 [Compound 19, (Z)-4-(4-((1H-Pyrrol-2-yl)methylene)-3-methyl-5-oxo-4,5-dihydro-1H-pyrazol-1-yl)benzoic Acid] | did not significantly affect the proliferation | dose-dependent antiproliferative effects | ~70 | > 80 | 30.1 ± 1.7 | did not significantly affect the proliferation | > 200 | a certain degree of antiproliferative activity | > 100 | modulation of the LC3-II/-I ratio and p62 autophagic markers | a certain degree of antiproliferative activity | no significative change | reduce the mRNA levels of UCP2 |  |  |  | 
2 | O=C(O)c1ccc(N2N=C(c3ccccc3)/C(=C/c3ccc[nH]3)C2=O)cc1 [Compound 34, (Z)-4-(4-((1H-Pyrrol-2-yl)methylene)-5-oxo-3-phenyl-4,5-dihydro-1H-pyrazol-1-yl)benzoic Acid] | did not significantly affect the proliferation | dose-dependent antiproliferative effects |  |  | 51.7 ± 9.5 | did not significantly affect the proliferation | > 200 | a certain degree of antiproliferative activity | 54 ± 10.9 | modulation of the LC3-II/-I ratio and p62 autophagic markers | a certain degree of antiproliferative activity | no significative change | reduce the mRNA levels of UCP2 | 70 | downregulating also HOXA9 | A similar response | 
3 | CC1=NN(c2ccc(C(=O)O)cc2)C(=O)/C1=C\c1ccc(-c2cc(C)c(C)cc2[N+](=O)[O-])o1 [VII (C646), reference compound] |  |  |  |  |  |  |  |  |  |  |  |  |  |  |  |  | 7 to 25
